Laboratory results taken from US6852499B2, “Luciferase detection reagent kits and luciferase detection method using the kit” (Toyo Ink Mfg. Co., Ltd., priority 2002, dated 2005).

Target: T1, Coleoptera luciferase (Photinus pyralis, UniProt P08659)
T1 construct: purchased Toyo Ink Manufacturing Co., Ltd. PGL100
Assay: luciferin/luciferase luminescent reaction with an added sulfur reagent, measured on a luminometer
Format: biochemical
Details: for RLU/200 (integrated quantity of light emitted for 200 seconds) / max RLU (maximum quantity of light emitted): 100 ng/mL luciferase; for max RLU (maximum quantity of light emitted): initial 200 seconds; for emission pattern (glow vs flash luminescence): reagent without thiol reagent, 200 seconds
Method: The luciferase used was one included in a commercially available kit (Toyo Ink Manufacturing Co., Ltd.; product No. PGL100).
A “luciferase luminescent reagent” containing 20 mM tricine, 1.07 mM (MgCO3)4Mg(OH)2·5H2O, 2.67 mM magnesium sulfate, 0.1 mM EDTA, 270 μM CoA, 470 μM luciferin and 530 μM adenosine triphosphate (ATP), pH 7.8 was prepared in accordance with the formulation described in the instructions included in “PicaGene Luminescent Kit” (Toyo Ink Manufacturing Co., Ltd.; product No. PGL100), except that 33.3 mM dithiothreitol (DTT) mentioned in the instructions was not added. To the “luciferase luminescent reagent” was added sodium diethyldithiocarbamate at final concentrations of 0 mM, 0.33 mM, 3.3 mM and 33.3 mM.
An enzyme solution containing 100 ng/mL of luciferase was collected in 10 μL in a measurement cuvette of a luminometer (Berthold, LB9506). To the enzyme solution was added 100 μL of each of the “luciferase luminescent reagents” prepared above. Immediately after the addition, the resulting mixed solution was loaded on the luminometer, and the quantity of light emitted was measured for the initial 200 seconds of the reagent addition to determine the maximum quantity of light emitted (RLU/sec) during the period of measurement and the integrated quantity of light emitted for 200 seconds (RLU/200 sec) (Table 2).
(§1) A “luciferase luminescent reagent” containing 20 mM tricine, 1.07 mM (MgCO3)4Mg(OH)2·5H2O, 2.67 mM magnesium sulfate, 0.1 mM EDTA, 270 μM CoA, 470 μM luciferin and 530 μM adenosine triphosphate (ATP), pH 7.8 was prepared in accordance with the formulation described in the instructions included in “PicaGene Luminescent Kit” (Toyo Ink Manufacturing Co., Ltd.; product No. PGL100), except that 33.3 mM dithiothreitol (DTT) mentioned in the instructions was not added.
A “luciferase luminescent reagent” containing 20 mM tricine, 1.07 mM (MgCO3)4Mg(OH)2·5H2O, 2.67 mM magnesium sulfate, 0.1 mM EDTA, 270 μM CoA, 470 μM luciferin and 530 μM adenosine triphosphate (ATP), pH 7.8 was prepared in accordance with the formulation described in the instructions included in “PicaGene Luminescent Kit” (Toyo Ink Manufacturing Co., Ltd.; product No. PGL100), except that 33.3 mM dithiothreitol (DTT) mentioned in the instructions was not added. To the “luciferase luminescent reagent” was added potassium xanthogenate at final concentrations of 0 mM, 0.33 mM 3.3 mM and 33.3 mM.
To the enzyme solution was added 100 μL of each of the “luciferase luminescent reagents” prepared above. Immediately after the addition, the resulting mixed solution was loaded on the luminometer, and the quantity of light emitted was measured for the initial 200 seconds of the reagent addition to determine the maximum quantity of light emitted (RLU/sec) during the period of measurement and the integrated quantity of light emitted for 200 seconds (RLU/200 sec) (Table 2).
A “luciferase luminescent reagent” containing 20 mM tricine, 1.07 mM (MgCO3)4Mg(OH)2·5H2O, 2.67 mM magnesium sulfate, 0.1 mM EDTA, 270 μM CoA, 470 μM luciferin and 530 μM adenosine triphosphate (ATP), pH 7.8 was prepared in accordance with the formulation described in the instructions included in “PicaGene Luminescent Kit” (Toyo Ink Manufacturing Co., Ltd.; product No. PGL100), except that 33.3 mM dithiothreitol (DTT) mentioned in the instructions was not added. To the “luciferase luminescent reagent” was added 2-mercaptobenzothiazole at final concentrations of 0 mM, 0.33 mM 3.3 mM and 33.3 mM.
as §1

T1 sequence (P08659 whole entry): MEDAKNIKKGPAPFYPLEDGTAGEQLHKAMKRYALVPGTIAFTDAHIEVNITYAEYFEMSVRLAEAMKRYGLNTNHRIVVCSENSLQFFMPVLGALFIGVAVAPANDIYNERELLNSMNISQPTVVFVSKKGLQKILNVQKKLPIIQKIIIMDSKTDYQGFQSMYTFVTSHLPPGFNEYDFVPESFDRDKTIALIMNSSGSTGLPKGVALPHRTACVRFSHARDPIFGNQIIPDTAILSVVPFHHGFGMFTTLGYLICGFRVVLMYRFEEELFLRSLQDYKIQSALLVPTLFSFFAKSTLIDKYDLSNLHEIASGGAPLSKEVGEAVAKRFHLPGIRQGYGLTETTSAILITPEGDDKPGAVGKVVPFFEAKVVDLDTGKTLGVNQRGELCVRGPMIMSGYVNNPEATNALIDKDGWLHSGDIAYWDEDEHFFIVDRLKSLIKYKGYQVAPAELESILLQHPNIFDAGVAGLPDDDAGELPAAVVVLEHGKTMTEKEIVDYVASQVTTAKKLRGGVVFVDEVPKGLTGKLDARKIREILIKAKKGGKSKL

CCN(CC)C(=S)[S-].[Na+] [Sodium diethyldithiocarbamate, sodium diethyldithiocarbamate]
change of the maximum quantity of light emitted (RLU/sec) as compared with the system containing no reagent (0 mM) (0.33 mM and 3.3 mM): increased only slightly | increase in the integrated quantity of light emitted (RLU/200 sec) as compared with the system containing no reagent (0 mM) (0.33 mM and 3.3 mM): about 1.7 fold | maximum and integrated quantity of light emitted relative to the systems at lower concentrations (33.3 mM vs 0.33 mM, 3.3 mM): about two-fifths | RLU/200 (integrated quantity of light emitted for 200 seconds) (final concentration 0.33 mM): 592,116,224 RLU/200 sec | max RLU (maximum quantity of light emitted) (final concentration 0.33 mM): 3,267,710 RLU/sec | RLU/200 (integrated quantity of light emitted for 200 seconds) (final concentration 3.3 mM): 611,260,800 RLU/200 sec | max RLU (maximum quantity of light emitted) (final concentration 3.3 mM): 3,141,880 RLU/sec | RLU/200 (integrated quantity of light emitted for 200 seconds) (final concentration 33.3 mM): 246,535,408 RLU/200 sec | max RLU (maximum quantity of light emitted) (final concentration 33.3 mM): 1,261,630 RLU/sec | emission pattern (glow vs flash luminescence): glow luminescence

O[C@H](CS)[C@H](O)CS (racemic) [DTT, dithiothreitol, reference compound]
integrated quantity of light emitted (RLU/for 200 sec), dependence on concentration (0 to 33.3 mM): increased with increasing DTT concentration | change of the maximum quantity of light emitted (RLU/sec) as compared with the system containing no reagent (0 mM) (0.33 mM and 3.3 mM): little difference | maximum quantity of light emitted relative to the value for the system without DTT (33.3 mM): 1.8 times | RLU/200 (integrated quantity of light emitted for 200 seconds) (final concentration 0.33 mM): 511,723,424 RLU/200 sec | max RLU (maximum quantity of light emitted) (final concentration 0.33 mM): 3,359,620 RLU/sec | RLU/200 (integrated quantity of light emitted for 200 seconds) (final concentration 3.3 mM): 579,940,160 RLU/200 sec | max RLU (maximum quantity of light emitted) (final concentration 3.3 mM): 3,221,070 RLU/sec | RLU/200 (integrated quantity of light emitted for 200 seconds) (final concentration 33.3 mM): 667,250,048 RLU/200 sec | max RLU (maximum quantity of light emitted) (final concentration 33.3 mM): 3,434,180 RLU/sec

Sc1nc2ccccc2s1 [2-mercaptobenzothiazole]
change of the maximum quantity of light emitted (RLU/sec) as compared with the system containing no reagent (0 mM) (0.33 mM and 3.3 mM): increased only slightly | increase in the integrated quantity of light emitted (RLU/200 sec) as compared with the system containing no reagent (0 mM) (0.33 mM and 3.3 mM): about 1.7 fold | maximum and integrated quantity of light emitted relative to the system at a lower concentration (33.3 mM vs 3.3 mM): nearly two-thirds | RLU/200 (integrated quantity of light emitted for 200 seconds) (final concentration 0.33 mM): 492,116,224 RLU/200 sec | max RLU (maximum quantity of light emitted) (final concentration 0.33 mM): 3,267,710 RLU/sec | RLU/200 (integrated quantity of light emitted for 200 seconds) (final concentration 3.3 mM): 622,578,816 RLU/200 sec | max RLU (maximum quantity of light emitted) (final concentration 3.3 mM): 3,410,350 RLU/sec | RLU/200 (integrated quantity of light emitted for 200 seconds) (final concentration 33.3 mM): 421,084,568 RLU/200 sec | max RLU (maximum quantity of light emitted) (final concentration 33.3 mM): 2,603,090 RLU/sec | emission pattern (glow vs flash luminescence): glow luminescence

CCOC(=S)[S-].[K+] [Potassium xanthogenate, potassium xanthogenate]
change of the maximum quantity of light emitted (RLU/sec) as compared with the system containing no reagent (0 mM) (0.33 mM): increased only slightly | increase in the integrated quantity of light emitted (RLU/200 sec) as compared with the system containing no reagent (0 mM) (0.33 mM): about 1.7 fold | maximum and integrated quantity of light emitted relative to the system at a lower concentration (33.3 mM vs 0.33 mM): about one-thirteenth | RLU/200 (integrated quantity of light emitted for 200 seconds) (final concentration 0.33 mM): 616,747,200 RLU/200 sec | max RLU (maximum quantity of light emitted) (final concentration 0.33 mM): 3,232,620 RLU/sec | RLU/200 (integrated quantity of light emitted for 200 seconds) (final concentration 3.3 mM): 92,549,720 RLU/200 sec | max RLU (maximum quantity of light emitted) (final concentration 3.3 mM): 473,070 RLU/sec | RLU/200 (integrated quantity of light emitted for 200 seconds) (final concentration 33.3 mM): 4,519,292 RLU/200 sec | max RLU (maximum quantity of light emitted) (final concentration 33.3 mM): 24,210 RLU/sec | emission pattern (glow vs flash luminescence): glow luminescence
